Measured values as given in patent US20090285888A1, “DERIVATIVES OF DIHYDROXYPHENYLALANINE” (priority 2006, published 2009).

What was measured:
[1] = test system: brain (striatum) of the rat; assay: Concentration of dopamine, its metabolites, 5-HT and 5-HIAA in the striatum of benserazide-pretreated rats; assay type: in vivo; conditions: for 3-MT concentration in striatum (MV) / 5-HIAA concentration in striatum (MV) / 5-HT concentration in striatum (MV) / Dopac concentration in striatum (MV) / Dopamine concentration in striatum (MV) / HVA concentration in striatum (MV): 30 min after benserazide, tissue 90 min later
Method: (§1) The rats were pretreated with benserazide, an inhibitor of the aromatic amino acid decarboxylase, in order to reduce the degradation of the test compounds in the blood and to thus provide sufficient concentration of dopamine and α-lipoic acid in the brain. After 30 minutes, L-DOPA (standard therapy for Parkinson's disease) or compound 1, compound 2, compound 3 in doses equivalent to L-DOPA were injected into the peritoneum (intraperitoneal, ip). After a further 90 minutes, blood and brain tissue (striatum) were extracted. A lower dose (25 mg/kg body weight) and a higher dose (50 mg/kg body weight) of L-DOPA were selected.

[2] = test system: blood plasma of rats; assay: Concentration of dopamine, its metabolites, 5-HT and 5-HIAA in the blood plasma of benserazide-pretreated rats; assay type: in vivo, rat; conditions: for 3-MT concentration in blood plasma (MV) / 5-HIAA concentration in blood plasma (MV) / 5-HT concentration in blood plasma (MV) / Dopac concentration in blood plasma (MV) / Dopamine concentration in blood plasma (MV) / HVA concentration in blood plasma (MV): 30 min after benserazide, blood 90 min later; for Formation of dopamine in the blood plasma (in words): low and higher doses
Method: as §1

[3] = test system: nucleus accumbens of a freely moving rat; assay: In vivo microdialysis of dopamine release in the nucleus accumbens of the freely moving rat
Method: The arrow indicates the moment of injection (ip: intraperitoneal) of L-DOPA (25 mg/kg body weight) 30 minutes after the administration of benserazide (10 mg/kg body weight, ip).
The arrow indicates the moment of injection (ip: intraperitoneal) of L-DOPA (50 mg/kg body weight) 30 minutes after the administration of benserazide (10 mg/kg body weight, ip, in 0.9% NaCl).
The arrow indicates the moment of injection (ip: intraperitoneal) of diacetyl-DOPA-ethylene glycol α-lipoic acid (equimolar dose to 25 mg/kg body weight L-DOPA) 30 minutes after the administration of benserazide (10 mg/kg body weight, ip in 0.9% NaCl).
The arrow indicates the moment of injection (ip: intraperitoneal) of diacetyl-DOPA-ethylene glycol α-lipoic acid (equimolar dose to 50 mg/kg body weight L-DOPA) 30 minutes after the administration of benserazide (10 mg/kg body weight, ip).
Furthermore, by the method of in vivo micro dialysis of the conscious and freely moving rat, experiments were carried out to test whether the production and release of dopamine in the nucleus accumbens, a part of the brain with dense innervation of dopamine-containing nerve cells, is increased upon administration of L-DOPA or compound 1. The advantage of said method consists in the fact that the time-course of the release of the messenger dopamine from the active nerve cells can be observed in the conscious and freely moving rat. […] Said strong increase and the high concentrations are not desired since several degradation products of dopamine and the oxygen radicals formed during the degradation of dopamine have damaging effects on nerve cells.

[4] = 25 mg/kg L-DOPA or L-DOPA eq. ip
[5] = 50 mg/kg L-DOPA or L-DOPA eq. ip
[6] = higher doses (50 mg/kg L-DOPA eq.)
[7] = low doses (25 mg/kg L-DOPA eq.)

SMILES	3-MT concentration in striatum (MV) [1, 4]	5-HIAA concentration in striatum (MV) [1, 4]	5-HT concentration in striatum (MV) [1, 4]	Dopac concentration in striatum (MV) [1, 4]	Dopamine concentration in striatum (MV) [1, 4]	HVA concentration in striatum (MV) [1, 4]	3-MT concentration in striatum (MV) [1, 5]	5-HIAA concentration in striatum (MV) [1, 5]	5-HT concentration in striatum (MV) [1, 5]	Dopac concentration in striatum (MV) [1, 5]	Dopamine concentration in striatum (MV) [1, 5]	HVA concentration in striatum (MV) [1, 5]	Effect on the concentrations of dopamine in striatum (in words) [1, 6]	Effect on the metabolites DOPAC and HVA in striatum (in words) [1, 6]	Effect on the concentrations of dopamine in striatum (in words) [1, 7]	Effect on the metabolites DOPAC and HVA in striatum (in words) [1, 7]	3-MT concentration in blood plasma (MV) [2, 4]	5-HIAA concentration in blood plasma (MV) [2, 4]	5-HT concentration in blood plasma (MV) [2, 4]	Dopac concentration in blood plasma (MV) [2, 4]	other results
CC(=O)Oc1ccc(CC(NC(=O)CCCCC2CCSS2)C(=O)O)cc1OC(C)=O [compound 2, O,O′-diacetyl-L-DOPA-(R,S)-lipoic acid amide]	267 pg per mg striatum	780 pg per mg striatum	438 pg per mg striatum	6127 pg per mg striatum	10512 pg per mg striatum	1577 pg per mg striatum	176 pg per mg striatum	782 pg per mg striatum	448 pg per mg striatum	5697 pg per mg striatum	11485 pg per mg striatum	1742 pg per mg striatum	led to an increase	increased	do not lead to an increase	increased	11480 pg per ml plasma	8374 pg per ml plasma	7966 pg per ml plasma	52963 pg per ml plasma	Effect on the concentration of 5-HT in striatum (in words) ([1]; rat, in vivo): increased the concentration of 5-HT; Dopamine concentration in blood plasma (MV) [2, 4]: 23006 pg per ml plasma; HVA concentration in blood plasma (MV) [2, 4]: 44304 pg per ml plasma; 3-MT concentration in blood plasma (MV) [2, 5]: 6121 pg per ml plasma; 5-HIAA concentration in blood plasma (MV) [2, 5]: 12656 pg per ml plasma; 5-HT concentration in blood plasma (MV) [2, 5]: 7494 pg per ml plasma; Dopac concentration in blood plasma (MV) [2, 5]: 57729 pg per ml plasma; Dopamine concentration in blood plasma (MV) [2, 5]: 21919 pg per ml plasma; HVA concentration in blood plasma (MV) [2, 5]: 42184 pg per ml plasma; Formation of dopamine in the blood plasma (in words) [2]: Dopamine is also formed
NC(Cc1ccc(O)c(O)c1)C(=O)O [L-DOPA, 2-amino-3-(3,4-dihydroxyphenyl)-propionic acid, reference compound]	312 pg per mg striatum	711 pg per mg striatum	365 pg per mg striatum	3017 pg per mg striatum	10108 pg per mg striatum	1752 pg per mg striatum	259 pg per mg striatum	593 pg per mg striatum	366 pg per mg striatum	9159 pg per mg striatum	11844 pg per mg striatum	4550 pg per mg striatum	led to an increase	increased	do not lead to an increase	increased	11897 pg per ml plasma	18687 pg per ml plasma	3089 pg per ml plasma	20833 pg per ml plasma	Dose dependence of dopamine release in nucleus accumbens (in words) ([3]; 25 and 50 mg/kg L-DOPA or equimolar doses, FIGS. 1-4): released in a dose-dependent manner; Time-course of dopamine concentration in nucleus accumbens microdialysate (in words) ([3]; ip, 30 min after benserazide, L-DOPA: higher dose (FIG. 1), compound 1: FIGS. 3 and 4): strongly increases; Dopamine concentration in blood plasma (MV) [2, 4]: 20437 pg per ml plasma; HVA concentration in blood plasma (MV) [2, 4]: 9592 pg per ml plasma; 3-MT concentration in blood plasma (MV) [2, 5]: 14711 pg per ml plasma; 5-HIAA concentration in blood plasma (MV) [2, 5]: 11426 pg per ml plasma; 5-HT concentration in blood plasma (MV) [2, 5]: 15108 pg per ml plasma; Dopac concentration in blood plasma (MV) [2, 5]: 38697 pg per ml plasma; Dopamine concentration in blood plasma (MV) [2, 5]: 31519 pg per ml plasma; HVA concentration in blood plasma (MV) [2, 5]: 69329 pg per ml plasma; Formation of dopamine in the blood plasma (in words) [2]: dopamine is formed
O=C(CCCCC1CCSS1)NC(Cc1ccc(O)c(O)c1)C(=O)O [compound 3, L-DOPA-(D,L)-lipoic acid amide]	292 pg per mg striatum	620 pg per mg striatum	340 pg per mg striatum	1508 pg per mg striatum	10539 pg per mg striatum	1042 pg per mg striatum	237 pg per mg striatum	490 pg per mg striatum	278 pg per mg striatum	1788 pg per mg striatum	11488 pg per mg striatum	1244 pg per mg striatum	led to an increase	increased	do not lead to an increase	only HVA					
